The values below come from patent US8114895B2, “Use of bipyridine compound ‘Caerulomycin A’ derivatives and analogs thereof as immunosuppressive agents” (Council of Science and Industrial Research, priority 2005, dated 2012).

In experiment [1] the test system is Splenocytes of BALB/c mice. In words: Proliferation of splenocytes stimulated with T cell and B cell mitogens (ConA, LPS). Type of experiment: cell-based. The method, then: Splenocytes of BALB/c mice were cultured (5×10^4 cells/well) in 200 μl RPMI/FCS-10% medium and stimulated with different concentrations of either ConA (1 μg/ml and 2 μg/ml) or LPS (5 μg/ml and 10 μg/ml) and Caerulomycin A (0.0003-0.1 μg/ml). The control cultures consisting of splenocytes incubated with medium alone, ConA and DMSO. After 48 h, the cultures were pulsed with 0.5 μCi of [^3H]-thymidine and harvested 14 h later by automatic cell harvester (Skatron, Tranby, Norway). Radioactivity incorporated was measured by liquid scintillation counting and data are expressed as mean counts per minute (cpm).
Examples establishing the role of Caerulomycin A [isolated from a novel species of Actinoalloteichus] in inducing immunosuppression based on the following: • Splenocytes of BALB/c mice were stimulated with either ConA (1 μg/ml and 2 μg/ml) or LPS (5 μg/ml and 10 μg/ml) and were cultured with different concentrations of Caerulomycin A (0.0003-0.1 μg/ml). After 48 h, the cultures were pulsed with 0.5 μCi of [^3H]-thymidine and harvested 14 h later by automatic cell harvester. Radioactivity incorporated was measured by liquid scintillation counting. • Antigen ovalbumin (100 μg/ml) emulsified in Freund's complete adjuvant was injected in a group consisting of 5 BALB/c mice. […] Radioactivity incorporated was measured by liquid scintillation. The culture supernatants were collected after 48 h and cytokines were measured by ELISA. • Immunosuppressive effect of different doses of Caerulomycin A was monitored on naïve CD4^+ T cells, antigen reactive CD4^+ T cells, Th2 clone and Th1 hybridoma. […] Radioactivity incorporated was measured by liquid scintillation. • Immunosuppressive effect of Caerulomycin A on MLR reaction. […] After 4 days, the cultures were pulsed with 1 μCi of [^3H]-thymidine and harvested 16 h later and radioactivity incorporated was measured by liquid scintillation counting. • In vivo immunosuppressive effect of Caerulomycin A on the proliferation of T cells. […] CD28 and CTLA-4 expression was detected by flowcytometry on the surface of resting and ConA activated CD4^+ T cells. […]

A further experiment concerns peritoneal macrophages. Nature of the experiment: Expression of B7-1, B7-2, CD40 and IA^d on peritoneal macrophages by flow cytometry. Type of experiment: cell-based, BALB/c mice. The method, then: The expression of B7-1 and B7-2 was detected on the surface of peritoneal macrophages incubated with different concentrations of Caerulomycin A (0.05-0.1 μg/ml). Peritoneal macrophages were harvested from BALB/c mice inoculated 4 days previously with 2-3 ml of thioglycolate. The cells were washed with BSS. The macrophages were obtained by adhering for 1 h at 37° C. on plastic Petri dishes followed by washing several times in cold BSS. The macrophages (1×10^6) were stimulated with 10 μg/ml of LPS for 24, 48 and 72 h in the presence and absence of Caerulomycin A (0.05-0.1 μg/ml) at 37° C. and 7% CO2. Then the cells were harvested and stained with their respective antibodies. Briefly, the cells were centrifuged (1200×g, 4° C., 5 min) and the supernatant was aspirated. The cells were washed 3× with 1% BSA, 0.1% sodium azide in PBS. In the first step, the cells (1×10^6) were incubated with biotinylated anti-mouse B7-1, CD40 and I-A^d (1 μg/100 μl) Abs for 45 min at 4° C. In the next step cells were stained with streptavidin FITC (0.5 μg/100 μl) or PE conjugated anti-mouse B7-2 (0.5 μg/100 μl) Abs and incubated for 45 min. Usual steps of washing were followed at each step. Finally the cells were washed five times and fixed in paraformaldehyde. The stained cells were acquired on a FACScan as mentioned for CD28/CTLA-4. Since the antigen presenting cells express B7-1 and B7-2, which are the ligands of CTLA-4 and CD28. […] The expression of IA^d was detected on the surface of peritoneal macrophages incubated with different concentrations of Caerulomycin A (0.05-0.1 μg/ml). Peritoneal macrophages were harvested from BALB/c mice inoculated 4 days previously with 2-3 ml of thioglycolate. The cells were washed with BSS. The macrophages were obtained by adhering for 1 h at 37° C. on plastic Petri dishes followed by washing several times in cold BSS. The macrophages (1×10^6) were stimulated with 10 μg/ml of LPS for 24, 48 and 72 h in the presence and absence of Caerulomycin A (0.05-0.1 μg/ml) at 37° C. and 7% CO2. Then the cells were harvested and stained with their respective antibodies. Briefly, the cells were centrifuged (1200×g, 4° C., 5 min) and the supernatant was aspirated. The cells were washed 3× with 1% BSA, 0.1% sodium azide in PBS. In the first step, the cells (1×10^6) were incubated with biotinylated anti-mouse I-A^d (1 μg/100 μl) Abs for 45 min at 4° C. In the next step cells were stained with streptavidin FITC (0.5 μg/100 μl) and incubated for 45 min. Usual steps of washing were followed at each step. Finally the cells were washed five times and fixed in paraformaldehyde. The stained cells were acquired on a FACScan as mentioned for CD28/CTLA-4. […] This may indicate that Caerulomycin A may inhibit the processing and presentation of antigen by APC.
(In general: Flow cytometry measures light scatter and fluorescence of single cells or particles in a stream.)

Where [2] appears, read: LPS 10 μg/ml, Caerulomycin A 0.05-0.1 μg/ml.

For `COc1cc(/C=N/O)nc(-c2ccccn2)c1` [Caerulomycin A, (E)-4-methoxy-2,2′-bipyridine-6-carbaldehyde oxime], the “proliferation of mitogen stimulated cells at the effective doses” value in experiment [1] (Caerulomycin A 0.05 and 0.1 μg/ml) is “potent inhibition”. In addition, the “proliferation of ConA stimulated cells” value in experiment [1] (ConA 1.0 and 2.0 μg/ml, Caerulomycin A 0.0003-0.1 μg/ml, 48 h) is “significant decrease”. Moreover, the “proliferation of cells stimulated with LPS” value in experiment [1] (LPS 5 and 10 μg/ml, Caerulomycin A 0.0003-0.1 μg/ml, 48 h) is recorded as “suppress the proliferation”. For the same molecule, in the experiment with peritoneal macrophages (setting [2]), the “display of B7-2” value is given as “decreased the display”, the “expression of B7-1” value is listed as “enhanced the expression” and the “expression of IA^d” value was “down regulated the expression”. Also, the “expression of CD40” value in the experiment on peritoneal macrophages (after 72 h) is given as “Slight increase in the expression”.
